In patent US6830760B2, “Glyburide composition” (Bristol-Myers Squibb Company, priority 2000, dated 2004):

Assay: Glyburide particle size by laser light scattering / laser diffraction
Type: physicochemical
Conditions: drug substance, laser diffraction particle size analysis
Experimental: Data from studies with metformin hydrochloride/glyburide tablets formulated with glyburide of different particle size characteristics allowed for the development of a correlation between glyburide particle size and the in vivo performance. The desired particle size distribution may be obtained by sieving or, preferably, air jet milling, and was measured by a laser light scattering method. The particle size measurement method of laser light scattering uses drug substance dispersed in liquid paraffin for introduction into the measurement cell. The apparatus produces a volume based, cumulative size distribution. […] The mill was operated with a Venturi nitrogen pressure of approximately 1.5 atmospheres and a micronization chamber pressure of 4 atmospheres. Size reduction was not allowed to proceed to the extent normally employed to make glyburide that would be described as micronized. The mill was turned off and the drug substance was discharged from it. A sample of the size-reduced glyburide was evaluated by a laser diffraction particle size analysis method.

| D25% | D50% | D75% | Structure (SMILES) |
| --- | --- | --- | --- |
| 5 microns | 9 microns | 21 microns | COc1ccc(Cl)cc1C(=O)NCCc1ccc(S(=O)(=O)NC(=O)NC2CCCCC2)cc1 [Example 1, 5-chloro-N-[2-[4-[[[(cyclohexylamino)-carbonyl]amino]sulfonyl]phenyl]ethyl]-2-methoxybenzamide] |
| 2.8 microns | 4.5 microns | 7.3 microns | COc1ccc(Cl)cc1C(=O)NCCc1ccc(S(=O)(=O)NC(=O)NC2CCCCC2)cc1 [commercially available micronized sample] |
